According to ChEMBL document CHEMBL5154925, “Design and Optimization of Thienopyrimidine Derivatives as Potent and Selective PI3Kδ Inhibitors for the Treatment of B-Cell Malignancies” (J Med Chem, 2022):
Converted amounts (≈) assume the structure as drawn. The source made the active and inactive calls. The calls are words filed in the database; no cut-off is given here.

Columns and labels:
[1] = Solubility of the compound in FaSSIF; format: physicochemical
[2] = target: Phosphatidylinositol 4,5-bisphosphate 3-kinase catalytic subunit beta isoform (Homo sapiens, UniProt P42338); assay: Inhibition of PI3Kbeta in LPA stimulated human PC-3 cells incubated for 10 mins by AlphaLISA assay; format: cell-based
[3] = target: Phosphatidylinositol 4,5-bisphosphate 3-kinase catalytic subunit gamma isoform (Homo sapiens, UniProt P48736); assay: Inhibition of wild type partial length human PIK3CG (S144 to A1102 residues) expressed in mammalian cells assessed as residual activity at 10 uM relative to control; format: cell-based
Pfeiffer [4] = assay: Antiproliferative activity against human Pfeiffer cells assessed as cell growth inhibition incubated for 96 hrs by cell titer glo assay; format: functional, cell-based
[5] = target: T1, Phosphatidylinositol 4,5-bisphosphate 3-kinase catalytic subunit delta isoform (Homo sapiens, UniProt O00329); assay: Inhibition of PI3Kdelta (unknown origin) using PIP2 as substrate measured after 1 hr in presence of ATP by ADP-glo luminescence assay
T1 sequence (O00329 whole entry): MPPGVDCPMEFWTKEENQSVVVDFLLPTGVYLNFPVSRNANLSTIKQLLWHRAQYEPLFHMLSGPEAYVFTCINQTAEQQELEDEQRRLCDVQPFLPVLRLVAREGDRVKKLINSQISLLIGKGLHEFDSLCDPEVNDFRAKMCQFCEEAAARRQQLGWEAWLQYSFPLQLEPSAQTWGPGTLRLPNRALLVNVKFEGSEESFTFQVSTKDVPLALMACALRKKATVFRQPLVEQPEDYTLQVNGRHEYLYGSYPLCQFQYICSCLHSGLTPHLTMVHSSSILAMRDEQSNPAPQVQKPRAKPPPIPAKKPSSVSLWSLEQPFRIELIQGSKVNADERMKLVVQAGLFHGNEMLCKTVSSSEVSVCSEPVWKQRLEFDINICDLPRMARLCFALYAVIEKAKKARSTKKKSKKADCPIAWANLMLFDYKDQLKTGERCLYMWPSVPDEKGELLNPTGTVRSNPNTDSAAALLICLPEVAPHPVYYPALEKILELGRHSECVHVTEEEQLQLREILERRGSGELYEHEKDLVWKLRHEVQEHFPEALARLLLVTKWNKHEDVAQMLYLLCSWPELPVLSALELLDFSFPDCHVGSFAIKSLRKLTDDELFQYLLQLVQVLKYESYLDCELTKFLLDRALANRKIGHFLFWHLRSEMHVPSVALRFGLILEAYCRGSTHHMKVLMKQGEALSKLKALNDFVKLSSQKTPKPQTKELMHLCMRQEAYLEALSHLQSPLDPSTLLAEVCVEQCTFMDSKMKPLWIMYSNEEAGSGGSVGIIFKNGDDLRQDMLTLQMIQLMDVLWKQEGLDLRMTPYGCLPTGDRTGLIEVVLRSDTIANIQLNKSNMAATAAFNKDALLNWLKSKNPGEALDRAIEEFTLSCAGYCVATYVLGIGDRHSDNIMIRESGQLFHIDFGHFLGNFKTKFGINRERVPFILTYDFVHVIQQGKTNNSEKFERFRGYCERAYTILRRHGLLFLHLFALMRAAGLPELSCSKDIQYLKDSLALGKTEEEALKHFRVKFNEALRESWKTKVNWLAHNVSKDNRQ

[6] = Cmax in ICR mouse at 3 mg/kg, iv measured upto 24 hrs by LC-MS/MS analysis; format: ADME, organism-based; set-up: time < 24 hrs, dose 3 mg/kg, route iv; settings: in vivo
Rec1 = assay: Antiproliferative activity against human REC1 cells assessed as cell growth inhibition incubated for 96 hrs by cell titer glo assay; format: functional, cell-based; settings: Rec1, 96 h
Pfeiffer [7] = assay: Inhibition of P13K signaling pathway in human Pfeiffer cells assessed as reduction in […] incubated for 4 hrs by Western blot analysis; format: cell-based; settings: dose 2-50 µM, DDE = dose-dependent effect
Mus musculus = assay: In vivo inhibition of PI3K signalling in human Pfeiffer cells xenografted in nude mouse assessed as reduction in Akt phosphorylation at Ser473 at 75 mg/kg, po by Western blotting analysis; format: functional, organism-based
[8] = target: Phosphatidylinositol 4,5-bisphosphate 3-kinase catalytic subunit alpha isoform (Homo sapiens, UniProt P42336); assay: Inhibition of PI3Kalpha (unknown origin) using PIP2 as substrate measured after 1 hr in presence of ATP by ADP-glo luminescence assay
Pfeiffer [9] = assay: Induction of apoptosis in human Pfeiffer cells assessed as early apoptotic cells at 50 uM incubated for 48 hrs by annexin V-FITC staining based flow cytometry (reference value: 4.16 %); format: functional
JeKo-1 = assay: Antiproliferative activity against human JeKo-1 cells assessed as cell growth inhibition incubated for 96 hrs by cell titer glo assay; format: functional, cell-based; settings: JeKo-1, 96 h
Pfeiffer [10] = assay: Induction of apoptosis in human Pfeiffer cells assessed as viable […] cells at 2 uM incubated for 48 hrs by annexin V-FITC staining based flow cytometry (reference value: 81.14 %); format: functional
[11] = AUC (0 to t) in ICR mouse at 30 mg/kg, po measured upto 24 hrs by LC-MS/MS analysis; format: ADME, organism-based; set-up: time < 24 hrs, dose 30 mg/kg, route po; settings: in vivo
Pfeiffer [12] = assay: Induction of apoptosis in human Pfeiffer cells assessed as late apoptotic cells at 50 uM incubated for 48 hrs by annexin V-FITC staining based flow cytometry (reference value: 7.87 %); format: functional
Pfeiffer [13] = assay: Induction of apoptosis in human Pfeiffer cells assessed as early apoptotic cells at 2 uM incubated for 48 hrs by annexin V-FITC staining based flow cytometry (reference value: 4.16 %); format: functional
Z-138 = assay: Antiproliferative activity against human Z138 cells assessed as cell growth inhibition incubated for 96 hrs by cell titer glo assay; format: functional, cell-based; settings: Z-138, 96 h
[14] = Tmax in ICR mouse at 3 mg/kg, iv measured upto 24 hrs by LC-MS/MS analysis; format: ADME, organism-based; settings: in vivo
SU-DHL-6 = assay: Inhibition of P13K signaling pathway in human SU-DHL-6 cells assessed as reduction in AKT phosphorylation at S473 residue incubated for 4 hrs by Western blot analysis; format: cell-based; settings: dose 2-50 µM, DDE = dose-dependent effect
Pfeiffer [15] = assay: Induction of apoptosis in human Pfeiffer cells assessed as necrotic cells at 2 uM incubated for 48 hrs by annexin V-FITC staining based flow cytometry (reference value: 6.62 %); format: functional
Pfeiffer [16] = assay: Induction of apoptosis in human Pfeiffer cells assessed as late apoptotic cells at 10 uM incubated for 48 hrs by annexin V-FITC staining based flow cytometry (reference value: 7.87 %); format: functional
[17] = Tmax in ICR mouse at 30 mg/kg, po measured upto 24 hrs by LC-MS/MS analysis; format: ADME, organism-based; settings: in vivo
[18] = Cmax in ICR mouse at 30 mg/kg, po measured upto 24 hrs by LC-MS/MS analysis; format: ADME, organism-based; set-up: time < 24 hrs, dose 30 mg/kg, route po; settings: in vivo
Pfeiffer [19] = assay: Induction of apoptosis in human Pfeiffer cells assessed as late apoptotic cells at 2 uM incubated for 48 hrs by annexin V-FITC staining based flow cytometry (reference value: 7.87 %); format: functional
[20] = Clearance in ICR mouse at 3 mg/kg, iv measured upto 24 hrs by LC-MS/MS analysis; format: ADME, organism-based; settings: in vivo

Sequence of Phosphatidylinositol 4,5-bisphosphate 3-kinase catalytic subunit alpha isoform (P42336 whole entry, canonical isoform): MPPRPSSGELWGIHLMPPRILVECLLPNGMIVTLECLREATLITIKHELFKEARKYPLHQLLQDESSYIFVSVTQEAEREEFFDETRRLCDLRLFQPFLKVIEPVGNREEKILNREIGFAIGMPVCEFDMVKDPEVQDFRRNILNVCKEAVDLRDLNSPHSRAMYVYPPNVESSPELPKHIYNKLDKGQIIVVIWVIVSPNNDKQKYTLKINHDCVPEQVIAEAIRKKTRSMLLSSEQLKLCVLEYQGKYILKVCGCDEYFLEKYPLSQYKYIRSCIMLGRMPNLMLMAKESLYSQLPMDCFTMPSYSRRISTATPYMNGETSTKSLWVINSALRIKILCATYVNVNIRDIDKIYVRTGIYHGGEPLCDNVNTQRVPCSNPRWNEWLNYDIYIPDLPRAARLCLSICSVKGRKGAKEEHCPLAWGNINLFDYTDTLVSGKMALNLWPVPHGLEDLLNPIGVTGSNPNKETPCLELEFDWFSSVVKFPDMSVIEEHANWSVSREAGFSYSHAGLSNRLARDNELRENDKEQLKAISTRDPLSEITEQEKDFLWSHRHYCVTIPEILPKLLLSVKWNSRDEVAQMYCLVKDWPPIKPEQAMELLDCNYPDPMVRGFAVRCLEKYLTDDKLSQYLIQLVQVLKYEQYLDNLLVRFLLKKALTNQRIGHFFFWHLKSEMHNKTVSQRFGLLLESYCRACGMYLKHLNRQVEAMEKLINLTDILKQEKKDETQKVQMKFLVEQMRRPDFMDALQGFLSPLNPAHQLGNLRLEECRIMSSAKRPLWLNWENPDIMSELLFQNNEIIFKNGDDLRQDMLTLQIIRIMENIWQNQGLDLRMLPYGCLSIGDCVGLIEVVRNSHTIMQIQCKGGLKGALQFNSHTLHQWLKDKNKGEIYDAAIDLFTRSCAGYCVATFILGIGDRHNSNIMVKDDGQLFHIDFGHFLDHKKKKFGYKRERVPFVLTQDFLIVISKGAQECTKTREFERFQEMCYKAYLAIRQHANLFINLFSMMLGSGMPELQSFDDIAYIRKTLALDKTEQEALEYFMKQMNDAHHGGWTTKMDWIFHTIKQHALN
Sequence of Phosphatidylinositol 4,5-bisphosphate 3-kinase catalytic subunit beta isoform (P42338 whole entry, the tested form may be a part, canonical isoform): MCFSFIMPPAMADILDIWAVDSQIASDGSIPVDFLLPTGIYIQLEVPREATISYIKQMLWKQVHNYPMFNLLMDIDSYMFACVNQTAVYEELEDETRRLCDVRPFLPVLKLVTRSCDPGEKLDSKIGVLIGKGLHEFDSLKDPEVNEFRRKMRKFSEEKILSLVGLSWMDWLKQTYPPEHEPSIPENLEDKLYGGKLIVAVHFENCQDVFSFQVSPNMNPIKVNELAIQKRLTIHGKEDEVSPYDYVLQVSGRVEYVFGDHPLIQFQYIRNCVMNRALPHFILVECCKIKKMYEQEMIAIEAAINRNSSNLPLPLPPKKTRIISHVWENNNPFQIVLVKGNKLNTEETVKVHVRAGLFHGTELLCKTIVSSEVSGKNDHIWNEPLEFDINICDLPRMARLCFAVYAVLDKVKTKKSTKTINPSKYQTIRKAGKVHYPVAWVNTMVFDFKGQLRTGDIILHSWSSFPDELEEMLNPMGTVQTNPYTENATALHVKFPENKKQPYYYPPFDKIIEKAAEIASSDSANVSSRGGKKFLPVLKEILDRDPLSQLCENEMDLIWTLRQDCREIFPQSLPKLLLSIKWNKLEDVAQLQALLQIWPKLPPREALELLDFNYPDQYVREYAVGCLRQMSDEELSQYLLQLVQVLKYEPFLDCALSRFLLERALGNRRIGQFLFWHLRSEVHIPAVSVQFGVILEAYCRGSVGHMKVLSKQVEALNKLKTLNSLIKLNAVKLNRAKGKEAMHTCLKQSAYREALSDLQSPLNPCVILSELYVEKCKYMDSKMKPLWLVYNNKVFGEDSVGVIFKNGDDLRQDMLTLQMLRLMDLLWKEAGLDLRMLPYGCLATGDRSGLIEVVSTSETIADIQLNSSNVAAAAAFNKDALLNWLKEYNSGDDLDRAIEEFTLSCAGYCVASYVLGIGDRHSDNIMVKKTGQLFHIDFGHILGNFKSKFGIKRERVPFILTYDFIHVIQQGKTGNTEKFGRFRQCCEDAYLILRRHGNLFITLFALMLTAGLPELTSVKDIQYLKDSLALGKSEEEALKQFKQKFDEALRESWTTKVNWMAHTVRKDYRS
Sequence of Phosphatidylinositol 4,5-bisphosphate 3-kinase catalytic subunit gamma isoform (P48736 whole entry, looked up, the tested form may be a part, canonical isoform): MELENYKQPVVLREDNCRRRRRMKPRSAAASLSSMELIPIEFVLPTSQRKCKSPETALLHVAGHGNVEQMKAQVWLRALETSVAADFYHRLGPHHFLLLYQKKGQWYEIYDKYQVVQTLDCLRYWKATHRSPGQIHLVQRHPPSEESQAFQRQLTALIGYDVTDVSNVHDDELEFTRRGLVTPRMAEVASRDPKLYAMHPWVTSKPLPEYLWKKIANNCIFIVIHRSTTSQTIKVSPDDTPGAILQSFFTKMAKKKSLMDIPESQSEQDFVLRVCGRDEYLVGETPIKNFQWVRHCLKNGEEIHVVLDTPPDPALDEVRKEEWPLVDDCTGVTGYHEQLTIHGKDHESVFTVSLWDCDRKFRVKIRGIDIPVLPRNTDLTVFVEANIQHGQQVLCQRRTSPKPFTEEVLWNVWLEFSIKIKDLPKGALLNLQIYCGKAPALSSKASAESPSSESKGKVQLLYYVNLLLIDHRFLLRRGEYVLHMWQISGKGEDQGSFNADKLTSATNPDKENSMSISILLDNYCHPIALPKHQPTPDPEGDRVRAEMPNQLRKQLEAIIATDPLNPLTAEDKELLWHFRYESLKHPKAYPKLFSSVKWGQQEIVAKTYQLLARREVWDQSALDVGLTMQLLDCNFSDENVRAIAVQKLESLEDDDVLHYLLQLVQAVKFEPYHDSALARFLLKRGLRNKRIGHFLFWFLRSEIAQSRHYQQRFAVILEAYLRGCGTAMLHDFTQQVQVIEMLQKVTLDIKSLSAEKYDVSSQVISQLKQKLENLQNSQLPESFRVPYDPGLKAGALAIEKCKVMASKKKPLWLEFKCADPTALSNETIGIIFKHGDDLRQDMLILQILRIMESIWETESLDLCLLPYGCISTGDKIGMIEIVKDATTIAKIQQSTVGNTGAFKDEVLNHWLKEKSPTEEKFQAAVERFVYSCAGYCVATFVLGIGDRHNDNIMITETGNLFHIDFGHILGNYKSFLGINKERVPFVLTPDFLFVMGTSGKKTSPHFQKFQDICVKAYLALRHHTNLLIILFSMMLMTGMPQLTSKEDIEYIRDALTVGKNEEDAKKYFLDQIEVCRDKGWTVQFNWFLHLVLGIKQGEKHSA

- solubility [1]: 102 µM (≈ 42.1 µg/mL)
- IC50 [2]: 5.12 µM
- Activity [3]: 9.9%
- IC50 [5]: 0.0057 µM
- Cmax [6]: 3.19 µg/mL
- IC50 [8]: 0.31 µM
- AUC(0-t) at 24 h [11]: 1.03 µg·h/mL
- Tmax [14]: 4.8 min
- Tmax [17]: 90 min
- Cmax [18]: 0.372 µg/mL
- clearance [20]: 2.19 L/h/kg
SMILES: CCC(=O)N1CC[C@H](Nc2ncnc3sc(-c4cnc(OC)c(OC)c4)cc23)C1
- IC50 (Pfeiffer [4]): 0.58 µM
- IC50 (Rec1): 1.21 µM
- inhibition (Pfeiffer [7]): Dde
- inhibition (Mus musculus): Active
- Activity (Pfeiffer [9]): 15.74%
- IC50 (JeKo-1): 14.7 µM
- Activity (Pfeiffer [10]): 76.43%
- Activity (Pfeiffer [12]): 43.33%
- Activity (Pfeiffer [13]): 6.03%
- IC50 (Z-138): 7.05 µM
- inhibition (SU-DHL-6): Dde
- Activity (Pfeiffer [15]): 5.01%
- Activity (Pfeiffer [16]): 22.9%
- Activity (Pfeiffer [19]): 12.63%
